Laboratory results from patent publication US20090264492A1, “PHARMACEUTICAL COMPOSITION FOR THE TREATMENT OF A FUNGAL SKIN DISORDER AND A METHOD FOR THE PREPARATION THEREOF” (Stichting Voor de Technische Wetenschappen, priority 2006, published 2009).

Experiments:
T. rubrum = test: PDT of T. rubrum on human stratum corneum (ex-vivo model), fungicidal effect; type: cell-based, Trichophyton rubrum; details: for relative frequency of the fungicidal effect: read day 8; for MIC (Minimum Inhibitory Concentration): 2 h incubation in water, 1 h 30 mW/cm^2 red light
Protocol: A polycarbonate membrane filter, 25 mm in diameter and a pore size of 2 μm (Whatman, Breda, The Netherlands) was placed in the central part of a 3 cm culture dish (Greiner, Alphen aan den Rijn, The Netherlands) filled with 5 ml of Malt Extract Agar (MEA). A circular piece of human stratum corneum (SC) with a diameter of 1 cm was subsequently placed on the membrane filter and both were gently brushed with a paintbrush dipped in 70% ethanol. A microconidia suspension isolated from Trichphyton rubrum (CBS nr. 304.60 obtained from Centraal Bureau voor Schimmelcultures, Utrecht, The Netherlands, and prepared as described by Smijs G. M. T. et al (2004) in “Photodynamic treatment of the dermatophyte Trichophyton Rubrum and its microconidia with porphyrin sensitizers. PhotoChemistry and PhotoBiology, 80, 197 - 202”) was diluted to 1000 CFU/ml and 15 μl was inoculated on the circular sheet of human SC. The dish was placed in an incubator at 28° C. and at 17 hours after spore inoculation photodynamic treatment (PDT) was applied.
At 17 hours after spore inoculation, the membrane filter with SC containing spore inoculates was transported from the MEA dish to a 3 cm culture dish filled with 1035 μl incubation medium. The incubation medium contained 1 ml of distilled water with an adjusted pH (3.5, 4.5, 5.2, or 7.4) and 35 μl of a Sylsens B stock solution (Buchem, Apeldoorn, the Nederland) . To optimize the contact of the inoculates with the incubation medium, the membrane filter with the SC was turned upside down during the incubation period of 2 hours. The incubation was performed under continuous shaking conditions. Shortly before the illumination period the membrane filter containing the SC was turned back (surface SC now faces the lamp). In all cases, the illumination time was 1 hour using a red light irradiance of 30 mW/cm^2. This corresponds to a light dose of 108 J/cm^2. After the illumination the membrane filter with the SC were transported to a fresh MEA dish, placed in a 28° C. incubator and fungal growth was followed for several weeks. Dark controls were included, i.e. the same procedure was carried out except that the inoculated microconidia on human skin were treated with solvent and/or photosensitizer in the dark. In the light controls, the microconidia were treated with solvent (only) in the presence of light. The efficacy of the treatment was expressed as a relative frequency of complete inactivation (killing) of fungal growth detected at day 8 after spore inoculation. This was assessed microscopically with the use of a Zeiss Axiovert 25 (Germany). […] The treatment effect was followed for a period of several months. Every experiment contained 4 to 6 duplicates of all conditions and the experiments were repeated 3 times at least.
PDT of T. rubrum 17 hours after spore inoculation using the ex-vivo model, different concentrations of Sylsens B and a different pH (water medium). The numbers indicate the relative frequency of the fungicidal effect^1. Numbers between brackets give the number of tests performed.
The experiment with Sylsens B was repeated more extensively, for a longer period of time and with more samples. More specifically, the photodynamic efficacy of Sylsens B towards T. rubrum was tested at 17 (FIG. 2a), 48 (FIG. 2b) and 72 hours (FIG. 2c) after spore inoculation on human SC, at the following incubation pH values: Filled diamonds: pH 3.5, filled squares: pH 5.2 and filled triangles: pH 7.4.

[1] = test system: the fungus cultivated in suspension; test: binding of Sylsens B to the fungus cultivated in suspension / photodynamic effect with competing cations; type: cell-based, T. rubrum; details: in the presence of 5 mM CaCl2 at pH 5.2
Protocol: In the above experiments, deuteroporphyrin monomethylether (DP mme), an anionic porphyrin, was used as a control. […] The effect of calcium-ions was investigated by determining the photodynamic effect in the presence of 5 mM CaCl2 at pH 5.2. […] So, PDT may even be used to inactivate (kill) the growing fungus if measures are taken to prevent naturally present calcium from interfering with the treatment, in particular by using a chelating compound such as EDTA.

[2] = production of 1O2 over the pH range; type: physicochemical; details: over the pH range used

binding of Sylsens B to the fungus [1]: eliminated binding
production of 1O2 [2]: substantially constant
SMILES: C[n+]1ccc(-c2c3nc(c(-c4cc[n+](C)cc4)c4ccc([nH]4)c(-c4cc[n+](C)cc4)c4nc(c(-c5ccccc5)c5ccc2[nH]5)C=C4)C=C3)cc1.[Cl-].[Cl-].[Cl-] [Sylsens B, 5,10,15-tris(4-methylpyridinium)-20-phenyl-[21H,23H]-porphine trichloride]
relative frequency of the fungicidal effect (T. rubrum; 0.5 μM, pH 3.5, illuminated, PDT 17 h after spore inoculation): 0 (6)
relative frequency of the fungicidal effect (T. rubrum; 0.5 μM, pH 5.2, illuminated, PDT 17 h after spore inoculation): 0 (3)
relative frequency of the fungicidal effect (T. rubrum; 0.5 μM, pH 7.4, illuminated, PDT 17 h after spore inoculation): 0 (6)
relative frequency of the fungicidal effect (T. rubrum; 1 μM, pH 3.5, dark control, 17 h after spore inoculation): 0 (2)
relative frequency of the fungicidal effect (T. rubrum; 1 μM, pH 3.5, illuminated, 17 h after spore inoculation): 0 (6)
relative frequency of the fungicidal effect (T. rubrum; 1 μM, pH 5.2, dark control, 17 h after spore inoculation): 0 (2)
relative frequency of the fungicidal effect (T. rubrum; 1 μM, pH 5.2, illuminated, 17 h after spore inoculation): 0 (3)
relative frequency of the fungicidal effect (T. rubrum; 1 μM, pH 7.4, dark control, 17 h after spore inoculation): 0 (2)
relative frequency of the fungicidal effect (T. rubrum; 1 μM, pH 7.4, illuminated, 17 h after spore inoculation): 0 (6)
relative frequency of the fungicidal effect (T. rubrum; 5 μM, pH 3.5, dark control, 17 h after spore inoculation): 0 (2)
relative frequency of the fungicidal effect (T. rubrum; 5 μM, pH 3.5, illuminated, 17 h after spore inoculation): 0.2 (10)
relative frequency of the fungicidal effect (T. rubrum; 5 μM, pH 5.2, dark control, 17 h after spore inoculation): 0 (4)
relative frequency of the fungicidal effect (T. rubrum; 5 μM, pH 5.2, illuminated, 17 h after spore inoculation): 0.43 (7)
relative frequency of the fungicidal effect (T. rubrum; 5 μM, pH 7.4, dark control, 17 h after spore inoculation): 0 (6)
relative frequency of the fungicidal effect (T. rubrum; 5 μM, pH 7.4, illuminated, 17 h after spore inoculation): 0.4 (12)
relative frequency of the fungicidal effect (T. rubrum; 6 μM, pH 3.5, illuminated, 17 h after spore inoculation): 0.5 (2)
relative frequency of the fungicidal effect (T. rubrum; 6 μM, pH 5.2, illuminated, 17 h after spore inoculation): 1 (4)
relative frequency of the fungicidal effect (T. rubrum; 6 μM, pH 7.4, dark control, 17 h after spore inoculation): 0 (6)
relative frequency of the fungicidal effect (T. rubrum; 6 μM, pH 7.4, illuminated, 17 h after spore inoculation): 0.2 (12)
relative frequency of the fungicidal effect (T. rubrum; 7 μM, pH 5.2, illuminated, 17 h after spore inoculation): 1 (4)
relative frequency of the fungicidal effect (T. rubrum; 8 μM, pH 3.5, illuminated, 17 h after spore inoculation): 0.75 (4)
relative frequency of the fungicidal effect (T. rubrum; 8 μM, pH 5.2, illuminated, 17 h after spore inoculation): 1 (4)
relative frequency of the fungicidal effect (T. rubrum; 8 μM, pH 7.4, dark control, 17 h after spore inoculation): 0 (6)
relative frequency of the fungicidal effect (T. rubrum; 8 μM, pH 7.4, illuminated, 17 h after spore inoculation): 0.6 (12)
relative frequency of the fungicidal effect (T. rubrum; 9 μM, pH 5.2, illuminated, 17 h after spore inoculation): 1 (4)
relative frequency of the fungicidal effect (T. rubrum; 10 μM, pH 3.5, dark control, 17 h after spore inoculation): 0 (2)
relative frequency of the fungicidal effect (T. rubrum; 10 μM, pH 3.5, illuminated, 17 h after spore inoculation): 0.8 (10)
relative frequency of the fungicidal effect (T. rubrum; 10 μM, pH 5.2, dark control, 17 h after spore inoculation): 0 (4)
relative frequency of the fungicidal effect (T. rubrum; 10 μM, pH 5.2, illuminated, 17 h after spore inoculation): 1 (9)
relative frequency of the fungicidal effect (T. rubrum; 10 μM, pH 7.4, dark control, 17 h after spore inoculation): 0 (6)
relative frequency of the fungicidal effect (T. rubrum; 10 μM, pH 7.4, illuminated, 17 h after spore inoculation): 0.6 (12)
relative frequency of the fungicidal effect (T. rubrum; 15 μM, pH 3.5, illuminated, 17 h after spore inoculation): 1 (4)
relative frequency of the fungicidal effect (T. rubrum; 15 μM, pH 5.2, illuminated, 17 h after spore inoculation): 1 (4)
relative frequency of the fungicidal effect (T. rubrum; 15 μM, pH 7.4, dark control, 17 h after spore inoculation): 0.5 (6)
relative frequency of the fungicidal effect (T. rubrum; 15 μM, pH 7.4, illuminated, 17 h after spore inoculation): 0.7 (12)
relative frequency of the fungicidal effect (T. rubrum; 20 μM, pH 3.5, dark control, 17 h after spore inoculation): 0 (2)
relative frequency of the fungicidal effect (T. rubrum; 20 μM, pH 3.5, illuminated, 17 h after spore inoculation): 1 (4)
relative frequency of the fungicidal effect (T. rubrum; 20 μM, pH 5.2, dark control, 17 h after spore inoculation): 0 (2)
relative frequency of the fungicidal effect (T. rubrum; 20 μM, pH 7.4, dark control, 17 h after spore inoculation): 0.3 (6)
relative frequency of the fungicidal effect (T. rubrum; 20 μM, pH 7.4, illuminated, 17 h after spore inoculation): 0.6 (12)
relative frequency of the fungicidal effect (T. rubrum; 30 μM, pH 3.5, dark control, 17 h after spore inoculation): 0.5 (2)
relative frequency of the fungicidal effect (T. rubrum; 30 μM, pH 3.5, illuminated, 17 h after spore inoculation): 1 (4)
relative frequency of the fungicidal effect (T. rubrum; 30 μM, pH 5.2, dark control, 17 h after spore inoculation): 1 (2)
relative frequency of the fungicidal effect (T. rubrum; 30 μM, pH 5.2, illuminated, 17 h after spore inoculation): 1 (5)
relative frequency of the fungicidal effect (T. rubrum; 30 μM, pH 7.4, dark control, 17 h after spore inoculation): 0.3 (6)
relative frequency of the fungicidal effect (T. rubrum; 30 μM, pH 7.4, illuminated, 17 h after spore inoculation): 0.6 (12)
relative frequency of the fungicidal effect (T. rubrum; 40 μM, pH 3.5, illuminated, 17 h after spore inoculation): 1 (4)
relative frequency of the fungicidal effect (T. rubrum; 40 μM, pH 7.4, dark control, 17 h after spore inoculation): 0 (6)
relative frequency of the fungicidal effect (T. rubrum; 40 μM, pH 7.4, illuminated, 17 h after spore inoculation): 1 (12)
relative frequency of the fungicidal effect (T. rubrum; 50 μM, pH 3.5, dark control, 17 h after spore inoculation): 0.5 (2)
relative frequency of the fungicidal effect (T. rubrum; 50 μM, pH 3.5, illuminated, 17 h after spore inoculation): 1 (10)
relative frequency of the fungicidal effect (T. rubrum; 50 μM, pH 5.2, dark control, 17 h after spore inoculation): 1 (2)
relative frequency of the fungicidal effect (T. rubrum; 50 μM, pH 5.2, illuminated, 17 h after spore inoculation): 1 (3)
relative frequency of the fungicidal effect (T. rubrum; 50 μM, pH 7.4, dark control, 17 h after spore inoculation): 0.5 (6)
relative frequency of the fungicidal effect (T. rubrum; 50 μM, pH 7.4, illuminated, 17 h after spore inoculation): 0.9 (12)
relative frequency of the fungicidal effect (T. rubrum; 65 μM, pH 3.5, dark control, 17 h after spore inoculation): 1 (2)
relative frequency of the fungicidal effect (T. rubrum; 65 μM, pH 3.5, illuminated, 17 h after spore inoculation): 1 (4)
relative frequency of the fungicidal effect (T. rubrum; 65 μM, pH 7.4, dark control, 17 h after spore inoculation): 1 (6)
relative frequency of the fungicidal effect (T. rubrum; 65 μM, pH 7.4, illuminated, 17 h after spore inoculation): 1 (12)
relative frequency of the fungicidal effect (T. rubrum; 80 μM, pH 3.5, dark control, 17 h after spore inoculation): 0.5 (4)
relative frequency of the fungicidal effect (T. rubrum; 80 μM, pH 3.5, illuminated, 17 h after spore inoculation): 1 (8)
relative frequency of the fungicidal effect (T. rubrum; 80 μM, pH 5.2, dark control, 17 h after spore inoculation): 1 (2)
relative frequency of the fungicidal effect (T. rubrum; 80 μM, pH 5.2, illuminated, 17 h after spore inoculation): 1 (3)
relative frequency of the fungicidal effect (T. rubrum; 80 μM, pH 7.4, dark control, 17 h after spore inoculation): 1 (6)
relative frequency of the fungicidal effect (T. rubrum; 80 μM, pH 7.4, illuminated, 17 h after spore inoculation): 1 (12)
cfu in dark controls (T. rubrum; 17-hour stage after spore inoculation): 8 to 12 cfu
cfu in dark controls (T. rubrum; 48-hour and 72 hour stage, concentrations higher than 80 μM): 5 to 8 cfu
cfu in dark controls (T. rubrum; 48-hour and 72 hour stage, up to 80 μM Sylsens B): 8 to 12 cfu
MIC (Minimum Inhibitory Concentration) (T. rubrum; pH 5.2, PDT 17 h after spore inoculation): 5 to 6 µM
MIC (Minimum Inhibitory Concentration) (T. rubrum; pH 7.4, PDT 17 h after spore inoculation): ≧50 μM
